The values that follow come from patent US11771702B2, “Agonists of PPAR-δ” (priority 2018, dated 2023).

For orientation: EC50 means the concentration that produces a half-maximal response.

The target in assay [1] is T1, PPAR-δ (Homo sapiens, UniProt Q03181).
T1 sequence (Q03181 1-441): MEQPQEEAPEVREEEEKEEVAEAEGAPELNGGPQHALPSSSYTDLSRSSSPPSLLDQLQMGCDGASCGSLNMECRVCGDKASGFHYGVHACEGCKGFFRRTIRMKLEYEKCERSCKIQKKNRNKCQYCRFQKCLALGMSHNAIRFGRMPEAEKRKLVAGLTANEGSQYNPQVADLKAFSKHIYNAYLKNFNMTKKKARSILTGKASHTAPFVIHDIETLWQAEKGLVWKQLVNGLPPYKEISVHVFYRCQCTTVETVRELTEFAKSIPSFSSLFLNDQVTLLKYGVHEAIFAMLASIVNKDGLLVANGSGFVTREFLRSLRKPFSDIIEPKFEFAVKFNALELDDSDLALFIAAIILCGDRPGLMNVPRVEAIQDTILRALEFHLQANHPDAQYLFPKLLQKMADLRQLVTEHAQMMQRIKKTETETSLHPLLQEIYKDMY
The note with it: ligand of the PDB complex, published EC50; cited from earlier work.

The target in the next assay is T2, PPAR-α (Homo sapiens, UniProt Q07869).
T2 construct: hPPARα/LBD encoding amino acids 175-468; expressed in transfected cells; host or cells: HEK293T
T2 sequence (Q07869 175-468): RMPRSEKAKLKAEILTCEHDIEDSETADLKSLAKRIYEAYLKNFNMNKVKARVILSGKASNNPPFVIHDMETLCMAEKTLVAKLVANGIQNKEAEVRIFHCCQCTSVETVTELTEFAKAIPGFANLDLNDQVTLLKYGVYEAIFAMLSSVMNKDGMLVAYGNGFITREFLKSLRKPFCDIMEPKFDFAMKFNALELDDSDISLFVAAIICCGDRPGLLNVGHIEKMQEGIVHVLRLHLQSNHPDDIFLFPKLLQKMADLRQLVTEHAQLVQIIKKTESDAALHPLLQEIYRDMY
As to the kind of experiment: GAL4-DBD/PPAR-LBD luciferase reporter agonist assay in HEK293T cells, PPAR-α. The assay is classed as cell-based. The method, then: (§1) Measuring molecular agonist activities—a GAL4-DNA Binding Domain (GAL4-DBD) fusion protein was constructed for each PPAR family member. To assess compound activity, each construct was co-transfected into HEK293T cells (American Type Culture Collection; Manassas, Va.) along with the reporter construct, pGL5 (Promega) using Fugene 6 (Promega) as a transfection reagent and the manufacturer's protocol. An eleven-point dilution series of each compound was added to the cells and incubated overnight. Luciferase levels were then determined following the addition of Bright-Glo (Promega) using the manufacturer's recommendations.

Assay [2] addresses T3, PPAR-δ (Homo sapiens, UniProt Q03181).
T3 construct: hPPARδ/LBD encoding amino acids 147-441; expressed in transfected cells; host or cells: HEK293T
T3 sequence (Q03181 147-441): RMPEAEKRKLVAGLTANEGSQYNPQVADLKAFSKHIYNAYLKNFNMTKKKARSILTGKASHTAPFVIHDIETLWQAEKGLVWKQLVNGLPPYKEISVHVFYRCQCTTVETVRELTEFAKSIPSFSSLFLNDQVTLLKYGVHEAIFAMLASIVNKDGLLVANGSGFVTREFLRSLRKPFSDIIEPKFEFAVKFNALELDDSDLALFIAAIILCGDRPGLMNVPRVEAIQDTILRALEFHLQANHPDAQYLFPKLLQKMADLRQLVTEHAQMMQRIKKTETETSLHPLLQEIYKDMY
As to the kind of experiment: GAL4-DBD/PPAR-LBD luciferase reporter agonist assay in HEK293T cells, PPAR-δ. The assay is classed as cell-based. The note with it: for PPAR subtype selectivity: PPAR-δ vs PPAR-α and PPAR-γ. The method, then: as §1
For orientation: Reporter assays use an easily measured gene product as a stand-in for the process of interest.

In another assay the target is T4, PPAR-γ (Homo sapiens, UniProt P37231).
T4 construct: hPPARγ/LBD encoding amino acids 184-477; expressed in transfected cells; host or cells: HEK293T
T4 sequence (P37231 184-477 isoform P37231-2): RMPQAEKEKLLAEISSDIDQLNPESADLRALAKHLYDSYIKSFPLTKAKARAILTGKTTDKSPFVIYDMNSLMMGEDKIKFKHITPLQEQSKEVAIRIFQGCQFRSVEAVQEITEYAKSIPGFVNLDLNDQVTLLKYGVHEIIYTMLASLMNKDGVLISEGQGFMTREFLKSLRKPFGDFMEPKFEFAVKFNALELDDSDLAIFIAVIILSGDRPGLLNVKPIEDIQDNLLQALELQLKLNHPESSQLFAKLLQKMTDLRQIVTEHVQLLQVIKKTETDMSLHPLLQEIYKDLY
As to the kind of experiment: GAL4-DBD/PPAR-LBD luciferase reporter agonist assay in HEK293T cells, PPAR-γ. The assay is classed as cell-based. The method, then: as §1

Where [3] appears, read: Table 10 (PPAR-δ), read-out: PPAR-δ EC50.

Where two headings read alike, the source gives them in different places.

`CC/C=C\C/C=C\C/C=C\C/C=C\C/C=C\CCCC(=O)O` [3GXW]: the EC50 at PPAR-δ [1] is 4 µM.

As to `O=C(COc1ccc(C(=O)O)cc1)NC(c1ccccc1)c1ccc(Cl)cc1` (stereo not shown) [GNF-0248], the 50% effective concentration (EC50) came out at 7.04 µM at PPAR-α (Table 10) and 7.55 µM at PPAR-δ [2] (Table 10).

On to `Cc1ccc(C(=O)Nc2cccc(CNCc3ccc(OC(F)(F)F)cc3)c2)cc1` [GNF-0341], for which the EC50 at PPAR-γ (Table 9, read-out: PPAR-γ EC50) is 1.26 µM; at PPAR-δ [2] (Table 9), 0.011 µM. Moreover, on PPAR-δ [2], the “PPAR subtype selectivity” value was “agonists of PPAR-δ and PPAR-γ only”.

In the case of `O=C(O)Cc1csc(SCc2cc(F)cc3c2OC(c2ccccc2)OC3)n1` (stereo not shown) [GNF-1051], the EC50 worked out at 7.33 µM on PPAR-α (Table 10) and 7.76 µM on PPAR-δ [2] (Table 10).

Consider `CCCOc1c(/C=C/C(=O)c2ccc(SCC(=O)O)c(OC)c2)cccc1OCC` [GNF-1676], for which the EC50 is 6.2 µM at PPAR-α (Table 10), 1.29 µM on PPAR-γ (setting [3]) and 8.39 µM at PPAR-δ [2] (Table 10).

Turning to `O=C(NCc1ccc(COCC(F)(F)F)cc1)c1cc(-c2ccccc2)[nH]n1` [GNF-3632], the EC50 stood at 5.48 µM at PPAR-α (Table 9) and 0.007 µM on PPAR-δ [2] (Table 9). The “PPAR subtype selectivity” value on PPAR-δ [2] is “agonists of PPAR-δ and PPAR-α only”.

With `CCOc1cc(/C=C/C(=O)O)ccc1OCc1ccc(C(C)(C)C)cc1` [GNF-4516], the concentration for a half-maximal effect (EC50) at PPAR-α (Table 10) worked out at 2.33 µM; on PPAR-δ [2] (Table 10) it was 6.82 µM.

With `COc1ccc(C(=O)/C=C/c2c(C)nn(-c3ccccc3)c2Cl)cc1CSCC(=O)O` [GNF-4909], the figures for the half-maximal effective concentration (EC50) at PPAR-α (Table 10), on PPAR-γ (setting [3]) and on PPAR-δ [2] (Table 10) were 0.825 µM, 1.83 µM and 8.24 µM, respectively.

In the case of `COCCCn1c(SCc2cccc(C(=O)O)c2)nc2sc3c(c2c1=O)CCCS3` [GNF-5154], the concentration for a half-maximal effect (EC50) at PPAR-α (Table 10) is over 10 µM; at PPAR-γ (setting [3]), over 10 µM; at PPAR-δ [2] (Table 10), 7.04 µM.

As to `CCc1cc(C(c2cccc(OC)c2)N2CCN(CCO)CC2)c(NC(=O)c2ccccc2)s1` (stereo not shown) [GNF-5295], the EC50 on PPAR-α (Table 9) is over 10 µM; at PPAR-γ (Table 9, read-out: PPAR-γ EC50) it was 7.28 µM; at PPAR-δ [2] (Table 9) it was 0.013 µM. The “PPAR subtype selectivity” value on PPAR-δ [2] is “agonists of PPAR-δ and PPAR-γ only”.

`COc1cc(/C=C2/S/C(=N/c3ccccc3)NC2=O)ccc1OCc1cccc(C(=O)O)c1` [GNF-5758]: the EC50 was 6.93 µM at PPAR-α (Table 10), 9.73 µM at PPAR-γ (setting [3]) and 4.33 µM at PPAR-δ [2] (Table 10).

As for `O=C(Nc1ccccc1O)C1CCN(C(=O)COc2ccc(F)cc2)CC1` [GNF-5891], the EC50 at PPAR-γ (Table 9, read-out: PPAR-γ EC50) is over 10 µM; on PPAR-δ [2] (Table 9) it was 0.017 µM.

Regarding `O=C(Nc1cccc(CNCC(c2cccs2)N2CCOCC2)c1)c1ccc(Cl)cc1` (stereo not shown) [GNF-6029], the concentration giving a half-maximal response (EC50) at PPAR-δ [2] (Table 9) is 0.012 µM.

For the compound `CCOc1cccc(/C=N/c2cccc(-c3csc(/N=C/c4cccc(OCC)c4O)n3)c2)c1O` [GNF-6878], the EC50 on PPAR-δ [2] (Table 9) is 0.008 µM.

`O=C(OCC(=O)c1ccc(O)cc1O)c1ccc(COc2ccc3ccccc3c2)o1` [GNF-6928]: the EC50 on PPAR-α (Table 10) was found to be 6.9 µM; at PPAR-γ (setting [3]) it was 3.78 µM; at PPAR-δ [2] (Table 10), 3.7 µM.

Turning to `COc1cc(CNCc2cc(C)on2)ccc1OCC(=O)Nc1ccc(Br)cc1` [GNF-6952], the results for the EC50 on PPAR-α (Table 9) and on PPAR-δ [2] (Table 9) were 7.56 µM and 0.019 µM, respectively. The “PPAR subtype selectivity” value on PPAR-δ [2] is “agonists of PPAR-δ and PPAR-α only”.

Turning to `O=C(NCCCCOc1ccc(F)cc1)c1ccc([N+](=O)[O-])c(O)c1` [GNF-7176], at PPAR-δ [2] (Table 10), a half-maximal effect (EC50) was put at 7.24 µM.

In the case of `COc1ccc(N2CCN(C(=O)CSc3nnc(COc4ccc(Cl)cc4C)[nH]3)CC2)cc1` [GNF-7486], a half-maximal response at PPAR-δ [2] (Table 9) (EC50) required 0.018 µM.

Turning to `CC(C(=O)Nc1ccc(SC(F)F)cc1)N1CC=C(c2ccc(O)cc2)CC1` (stereo not shown) [GNF-8208], the concentration for a half-maximal effect (EC50) on PPAR-δ [2] (Table 10) came out at 7.86 µM.

As for `O=C(CN1CCN(c2ccc(O)cc2)CC1)NCC1(N2CCOCC2)CCCCC1` [GNF-8501], at PPAR-δ [2] (Table 9), the response was half-maximal at 0.006 µM (EC50).

`CCOC(=O)NC(=O)COC(=O)c1c2c(nc3ccccc13)/C(=C\c1ccc(OC)cc1)CC(C)C2` (stereo not shown) [GNF-8560]: the EC50 was 1.41 µM on PPAR-α (Table 9); 3.53 µM on PPAR-γ (Table 9, read-out: PPAR-γ EC50); 0.011 µM at PPAR-δ [2] (Table 9). For the same compound, the “PPAR subtype selectivity” value at PPAR-δ [2] is “pan-agonist”.

Consider `Cc1cc(C(=O)COc2ccc(C(=O)O)cc2)c(C)n1CCC1=CCCCC1` [GNF-9057], for which the figures for the EC50 on PPAR-α (Table 10), at PPAR-γ (setting [3]) and on PPAR-δ [2] (Table 10) were 4.63 µM, 8.6 µM and 7.49 µM, respectively.

Turning to `O=C(Nc1ccccc1O)C1CCN(C(=O)c2ccc(OCC3CCCO3)cc2)CC1` (stereo not shown) [GNF-9448], the 50% effective concentration (EC50) on PPAR-α (Table 9) stood at 7.06 µM; at PPAR-γ (Table 9, read-out: PPAR-γ EC50) it was 0.937 µM; at PPAR-δ [2] (Table 9), 0.883 µM.

On PPAR-δ [2] (Table 10), `O=[N+]([O-])c1cc(S(=O)(=O)N2CCCC2)ccc1OCC(O)CNCc1ccc(F)cc1` (stereo not shown) [GNF-9594] had an EC50 of 4.6 µM.

Take `Cc1ccc(-c2nc(SCCCC(=O)N3CCOCC3)[nH]c2-c2ccc(C)cc2)cc1` [GNF-9820]: at PPAR-δ [2] (Table 9), the EC50 stood at 0.012 µM.

On to `Cc1cc(C(=O)COC(=O)c2ccc(O)cc2O)c(C)n1Cc1ccc(F)cc1` [GNF-9969], for which the figures for the EC50 on PPAR-α (Table 10), at PPAR-γ (setting [3]) and on PPAR-δ [2] (Table 10) were 6.94 µM, 1.01 µM and 9.48 µM, respectively.
